This is an account of results in patent US8798939B2, “Methods for designing, selecting and/or optimizing allosteric processing inhibitors for matrix metalloproteinases” (Janssen Pharmaceutica N.V., priority 2011, dated 2014).

For the assay, the target named is T1, proMMP9 activation to active MMP9 in HFL-1 cells (Homo sapiens, UniProt P14780).
T1 construct: endogenous in cells; host or cells: HFL-1 (ATCC CCL-153), TNFα plus 30 nM human neutrophil elastase
Description: Activation of proMMP9 by human fetal lung fibroblast (HFL-1) cultures (Western blot). The assay is classed as cell-based. The conditions noted are these: 3.3 μM, 72 hrs, mAb-L51/82. How it is done:
Example 2 was assessed additionally for ability to block the maturation of proMMP9 to active MMP9 in cultures of human fetal lung fibroblasts (HFL-1, American Type Culture Collection #CCL-153). Unlike rat synoviocytes, HFL-1 cells were unable to process proMMP9 to the active form without addition of neutrophil elastase. […] Rather, the function of elastase in this assay may be to inactivate tissue inhibitors of matrix metalloproteinases (TIMPs) that repress endogenous pathways of MMP9 activation (Skold, Liu et al. 1999).
HLF-1 were maintained in monolayer culture in DMEM with 10% FCS and were used between passage numbers 5-15. HLF-1 were embedded in collagen gels as described for rat SCW synoviocytes (vida supra). […] The plates were cultured an additional 72 hrs, at which time MMP9 secreted into the conditioned media was bound to gelatin-sepharose and evaluated by Western blot analysis as described for the rat synoviocyte cultures (vida supra). mAb-51/82 detected three forms of MMP9 in HFL-1 cultures.
A second experiment was performed to determine if the 80 kD form was mature active MMP9 and to determine the potency of Example 2 as an inhibitor of MMP9 maturation in this assay. […] In the absence of Example 2, pAb-1246 readily detected MMP9 with an electrophoretic mobility of approximately 80 kD. […]

T1 sequence (P14780 20-707 limits assumed): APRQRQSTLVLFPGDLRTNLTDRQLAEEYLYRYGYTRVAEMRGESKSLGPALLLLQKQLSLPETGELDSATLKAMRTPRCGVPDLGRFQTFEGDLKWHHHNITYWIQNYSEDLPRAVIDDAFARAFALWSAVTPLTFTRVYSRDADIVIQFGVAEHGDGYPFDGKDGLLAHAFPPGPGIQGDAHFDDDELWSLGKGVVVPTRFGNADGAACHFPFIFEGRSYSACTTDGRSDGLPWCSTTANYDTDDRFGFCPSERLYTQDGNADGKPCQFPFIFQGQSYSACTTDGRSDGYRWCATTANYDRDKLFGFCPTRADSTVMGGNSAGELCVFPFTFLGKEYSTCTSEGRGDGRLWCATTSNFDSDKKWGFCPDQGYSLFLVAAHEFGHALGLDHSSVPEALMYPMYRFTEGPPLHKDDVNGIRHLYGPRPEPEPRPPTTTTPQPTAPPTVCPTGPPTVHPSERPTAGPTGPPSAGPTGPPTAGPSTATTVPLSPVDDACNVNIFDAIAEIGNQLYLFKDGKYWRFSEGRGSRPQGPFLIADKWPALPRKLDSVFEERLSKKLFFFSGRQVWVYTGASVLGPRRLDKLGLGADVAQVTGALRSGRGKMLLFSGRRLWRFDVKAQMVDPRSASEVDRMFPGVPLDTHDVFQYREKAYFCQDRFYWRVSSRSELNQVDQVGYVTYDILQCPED

As for `Cc1nc(C)c(-c2csc(Nc3cc(S(N)(=O)=O)ccc3OC(C)C)n2)s1` [Example 2, 3-(2′,4′-Dimethyl-[4,5′]bithiazolyl-2-ylamino)-4-isopropoxy-benzenesulfonamide.HBr], the “Signal Total” value amounted to 91346 INT * mm^2.
